Reference: patent publication US11738120B1, “Synthesis of taurolidine, purity profiles and polymorphs” (CorMedix Inc., priority 2022, dated 2023)
Where two headings read alike, the source gives them in different places.

How the values were obtained:
[1] = cited from earlier work; for ΔpH @ −20° C.: pH shift during freezing
[2] = cited from earlier work
[3] = Solubility of taurolidine polymorphs in aqueous citric acid; format: physicochemical; conditions: in 26.1 mg/mL aqueous citric acid, at T=25° C.
Method: Taurolidine Polymorphs A and B synthesized according to the Present Synthesis may both be soluble in 26.1 mg/mL aqueous citric acid, at T=25° C.

[4] = Long term stability tests of taurolidine solution with citric acid and sodium citrate; format: physicochemical; conditions: citric acid and sodium citrate in combination; compared with taurolidine solution prepared with polyvinylpyrrolidone (PVP)
Text: The composition employed in the practice of the present invention preferably also contains a pharmacologically acceptable carrier solution, such as, water for injection.

| SMILES | pH @ 25° C. [1] | ΔpH @ −20° C. [1] | also measured |
| --- | --- | --- | --- |
| O=C(O)CC(O)(CC(=O)O)C(=O)O [Citric acid] | 6.2 | −0.2 | – |
| O=C(O)CC(O)C(=O)O (stereo not drawn) [Malic acid] | 5.0 | −0.3 | pKa ([2]; second pKa value): 3.4, 5.1 |
| O=S1(=O)CCN(CN2CCS(=O)(=O)NC2)CN1 [Polymorph A, taurolidine] | – | – | solubility [3]: soluble |
| NC(CO)(CO)CO [Tromethamine] | 7.2 | +2.1 | – |
| O=S1(=O)CCN(CN2CCS(=O)(=O)NC2)CN1 [taurolidine] | – | – | stability and solubility of taurolidine in solution [4]: increases the stability and solubility |
| N[C@@H](CCC(=O)O)C(=O)O [Glutamic acid] | – | – | pKa ([2]; second pKa value): 4.1; pKa ([2]; third pKa value printed in the cell): 9.5 |
| N[C@@H](Cc1c[nH]cn1)C(=O)O [Histidine] | 5.4 | +0.8 | – |
| CC(=O)O [Acetic acid] | 5.6 | +0.5 | – |
